The Cmax is the highest concentration seen after dosing.

The target in data set [1] is EGFR^L858R/T790M/C797S kinase (Homo sapiens (Human), UniProt P00533, C797S/L858R/T790M). In words: EGFR^L858R/T790M/C797S kinase inhibitory activity experiment. The format is biochemical. Particulars: in vitro. The protocol: EGFRL^858R/T790M/C797S kinase inhibitory activity experiment: The compounds of the present invention have excellent in-vitro inhibitory activity against EGFR^L858R/T790M/C797S kinase
• Centrifuge (manufacturer: Eppendorf, model: 5430) • Microplate reader (manufacturer: Perkin Elmer, model: Caliper EZ ReaderII) • Echo 550 (manufacturer: Labcyte, model: Echo 550) • Experimental Method • Compound preparation: • A 10 mM storage solution was prepared.
(1) 1×Kinase buffer was prepared.
(2) Preparation of concentration gradient of compound: The tested compound has a test concentration starting from 1 μM, diluted 10 times, with 10 concentrations, and subjected to single-well or multi-well detection. The compound was diluted to a 100% DMSO solution with a final concentration of 100 times in a 384 source plate. […] of the compound at a final concentration of 100 times was transferred to the target plate 384-well-plate using the pipette Echo 550.
(3) A kinase solution with a final concentration of 2.5 times was prepared using 1× Kinase buffer.
(4) 10 μL of the kinase solution with the final concentration of 2.5 times was added to a compound well and a positive control well, respectively; 10 μL of 1×Kinase buffer was added to a negative control well.
(5) Centrifugation was conducted at 1000 rpm for 30 seconds, and the reaction plate was shaken and mixed well, and incubated at a room temperature for 10 minutes.
(6) A mixed solution of ATP with a final concentration of 5/3 times and Kinase substrate 22 was prepared using 1×Kinase buffer.
(7) A mixed solution of 15 μL of ATP with a final concentration of 5/3 times and a substrate was added for initial reaction.
(8) The 384-well-plate was centrifuged at 1000 rpm for 30 seconds, shaken and mixed well, and incubated at a room temperature for 60 minutes.
(9) 30 μL of a termination detection solution was added to stop the kinase reaction. Centrifugation was conducted at 1000 rpm for 30 seconds. Shaking and mixing well were conducted.
(10) The conversion rate was read using Caliper EZ Reader.
where Conversion %_sample is the conversion rate reading of the sample; Conversion %_min: the average value of negative control wells, representing the conversion rate reading of wells without enzyme activity; Conversion %_max: the average value of positive control wells, representing the conversion rate reading of wells without compound inhibition; % Inhibition represents the inhibition rate.
Fitting of Dose-Response Curve
Using the log value of concentration as the X-axis and the percentage inhibition rate as the Y-axis, the dose-response curve was fitted using the log(inhibitor) vs. response —Variable slope of the analysis software GraphPad Prism 5 to obtain the IC50 value of each compound on enzyme activity.

Data set [2] relates to BaF3-EGFR^L858R/T790M/C797S cells. In words: BaF3 cell proliferation inhibition experiment (CCK-8). The format is cell-based. Particulars: Ba/F3 EGFR-L858R, 72 hours. The source says:
BaF3 cell proliferation inhibition experiment: The compounds of the present invention have excellent inhibitory activity against the proliferation of BaF3-EGFR^L858R/T790M/C797S cells
(§1) A. Cell line: BaF3 cells with stable overexpression of wild-type genes are named BaF3-EGFR^WT, and BaF3 cells with stable overexpression of EGFR^L858R/T790M/C797S EGFR^del19/T790M/C797S EGFR^L858R/C797S and EGFR^del19/C797S mutant genes are named BaF3-EGFR^L858R/T790M/C797S BaF3-EGFR^del19/T790M/C797S BaF3-EGFR^L858R/C797S and BaF3-EGFR^del19/C797S cells, respectively. Mediums:
(§2) a) The medium was preheated in a 37° C. water bath.
(§3) b) The cryopreservation tube was taken from the liquid nitrogen tank, quickly placed in a 37° C. water bath, and melted completely within 1 minute.
(§4) c) The cell suspension was transferred to a 15 mL centrifuge tube containing a 10 mL medium and centrifuged at 1000 rpm for 4 minutes.
(§5) d) The supernatant was discarded, the cells were resuspended in a 1 mL medium and transferred to a […] culture dish containing a 10 mL medium, 20% serum and 50 ng/mL EGF were administered to the first-generation medium, and culture was conducted in a 37° C. and 5% CO2 incubator.
(§6) b) The cells in the culture dish were blown evenly with a 5 mL pipette, and 500 μL of the cells were pipetted out to be inoculated into a new […] culture dish and cultured in a 37° C. and 5% CO2 incubator.
(§7) a) The compound to be tested (10 mM stock solution) was diluted with 100% DMSO to 1 mM, and diluted with a culture solution in a 24-well plate to prepare of a working solution of 2 μM concentration.
(§8) b) The 2 μM working solution was diluted with a triple dilution method to obtain working solutions with approximate concentrations of 2 μM, 600 nM, 200 nM, 60 nM, and 20 nM.
(§9) a) The cells at the logarithmic growth phase were centrifuged at 1000 rpm for 4 minutes, resuspended with a medium (containing 10% serum and 50 ng/mL EGF), and counted.
(§10) b) The cells were inoculated into a 96-well plate with a cell density of 4000 cells/well, and placed in a 37° C. and 5% CO2 incubator for culture for 12 hours.
(§11) a) The prepared compound was added to a 96-well plate, with 100 μL per well. The final concentrations were 1 μM, 300 nM, 100 nM, 30 nM, 10 nM, and 0 nM, and the final concentration of DMSO was 0.2%. A medium served as a blank control.
(§12) b) The cells were placed in 37° C. and 5% CO2 incubator for culture for 72 hours.
(§13) (5) Cell Viability Testing
(§14) a) The 96-well cell culture plate was taken out, and 20 μL of a CCK-8 reagent (Cell Counting Kit-8, Topscience, Catalog No. C0005) was added in the dark.
(§15) b) Mixing well was conducted on a horizontal shaking table at a room temperature at 100 rpm for 5 minutes.
(§16) c) The culture plate was placed in a 37° C. constant-temperature incubator for incubation.
d) Starting from the addition of the CCK-8, the absorbance at 450 nm was read using the TECAN microplate reader at 1 hour, 2 hours, and 3 hours, respectively.
(§17) The data was analyzed using GraphPad Prism 8.0 software to obtain a fitted curve of activity of the compounds. The IC50 of the compounds was fitted from nonlinear regression equation.

In data set [3] the test system is A431 cells. In words: A431 cell proliferation inhibition (SRB). In kind it is cell-based. Particulars: Homo sapiens, A-431, wild-type EGFR, 72 hours. The protocol:
A431 cell proliferation inhibition: The compounds of the present invention have good selectivity to wild-type EGFR
as §2, §3, §4, §5, §6, §7, §8, §9, §10, §11, §12, §13
a) The cell supernatant was discarded, rinsed once with 1×PBS, and fixed with 10% trichloroacetic acid for 1 hour. The trichloroacetic acid was discarded, excess trichloroacetic acid was washed off with tap water, and the 96-well plate was dried in a 60° C. oven.
b) 70 μL of an SRB stain was added to each well of the dry 96-well plate for staining at a room temperature for 30 minutes. Excess SRB stain was washed off with 1% glacial acetic acid, and the 96-well plate was dried in a 60° C. oven.
c) SRB was dissolved with 100 μL of 10 mM Tris-base solution. The absorbance was detected at 540 nm ultraviolet absorption using the microplate reader. The data was analyzed.
as §17

The nature of data set [4]: Detection of oral plasma exposure in rats. The format is in vivo. Particulars: rat, SD rats, p.o. 10 mg/kg. The protocol:
Detection of oral plasma exposure in rats: The compounds of the present invention have good oral in-vivo exposure in rats
After a single dose of 10 mg/kg oral administration of the compound to be tested in SD rats, blood samples were collected at different time points.
Standard curve and quality control sample preparation processing: The mixed reserve solution of the compound to be tested was taken and diluted with 50% methanol water into standard working solutions containing respective compounds with concentrations of 20, 40, 100, 200, 400, 1000, 2000, 4000, 10000, and 20000 ng/mL, as well as 60, 600, and 16000 ng/mL quality control working solutions. […] of a blank matrix was taken. […] of the standard curve working solutions and the quality control working solutions were added to prepare standard curves containing respective compounds with concentrations of 1.00, 2.00, 5.00, 10.00, 20.00, 50.00, 100.00, 200.00, 500.00, and 1000.00 ng/mL, as well as quality control samples with concentrations of 3.00, 30.00, and 800.00 ng/mL, respectively. 400 μL of acetonitrile (containing internal standard Verpmil of 2 ng/mL) was added. After vortex oscillation at 700 rcf for 10 minutes, centrifugation was conducted at 3300 rcf at 4° C. for 10 minutes. The supernatant was taken for LC-MS/MS analysis.
Unknown sample preparation processing: 50 μL of the sample to be tested was taken. 400 μL of acetonitrile (containing internal standard Verpmil of 2 ng/mL) was added. After vortex oscillation at 700 rcf for 10 minutes, centrifugation was conducted at 3300 rcf and 4° C. for 10 minutes. The supernatant was taken for LC-MS/MS analysis.

Data set [5] deals with BaF3-EGFR^WT cells. In words: BaF3 cell proliferation inhibition experiment (CCK-8). Particulars: Mus musculus, BaF3; cell proliferation, 72 hours; read-out: BaF3-EGFR^WT (IC50 nM). In kind it is cell-based. The protocol:
as §1, §2, §3, §4, §5, §6, §7, §8, §9, §10, §11, §12, §13, §14, §15, §16, §17

Data set [6] deals with BaF3-EGFR^del19/T790M/C797S cells. Described as above. Particulars: Ba/F3 EGFR-Del19/T790M/C797S; cell proliferation, 72 hours; read-out: BaF3-EGFR^del19 /T790M/C797S (IC50 nM). The format is cell-based. Here is the method: as §1, §2, §3, §4, §5, §6, §7, §8, §9, §10, §11, §12, §13, §14, §15, §16, §17

Sequence of EGFR^L858R/T790M/C797S kinase (P00533 25-1210 T790M/C797S/L858R): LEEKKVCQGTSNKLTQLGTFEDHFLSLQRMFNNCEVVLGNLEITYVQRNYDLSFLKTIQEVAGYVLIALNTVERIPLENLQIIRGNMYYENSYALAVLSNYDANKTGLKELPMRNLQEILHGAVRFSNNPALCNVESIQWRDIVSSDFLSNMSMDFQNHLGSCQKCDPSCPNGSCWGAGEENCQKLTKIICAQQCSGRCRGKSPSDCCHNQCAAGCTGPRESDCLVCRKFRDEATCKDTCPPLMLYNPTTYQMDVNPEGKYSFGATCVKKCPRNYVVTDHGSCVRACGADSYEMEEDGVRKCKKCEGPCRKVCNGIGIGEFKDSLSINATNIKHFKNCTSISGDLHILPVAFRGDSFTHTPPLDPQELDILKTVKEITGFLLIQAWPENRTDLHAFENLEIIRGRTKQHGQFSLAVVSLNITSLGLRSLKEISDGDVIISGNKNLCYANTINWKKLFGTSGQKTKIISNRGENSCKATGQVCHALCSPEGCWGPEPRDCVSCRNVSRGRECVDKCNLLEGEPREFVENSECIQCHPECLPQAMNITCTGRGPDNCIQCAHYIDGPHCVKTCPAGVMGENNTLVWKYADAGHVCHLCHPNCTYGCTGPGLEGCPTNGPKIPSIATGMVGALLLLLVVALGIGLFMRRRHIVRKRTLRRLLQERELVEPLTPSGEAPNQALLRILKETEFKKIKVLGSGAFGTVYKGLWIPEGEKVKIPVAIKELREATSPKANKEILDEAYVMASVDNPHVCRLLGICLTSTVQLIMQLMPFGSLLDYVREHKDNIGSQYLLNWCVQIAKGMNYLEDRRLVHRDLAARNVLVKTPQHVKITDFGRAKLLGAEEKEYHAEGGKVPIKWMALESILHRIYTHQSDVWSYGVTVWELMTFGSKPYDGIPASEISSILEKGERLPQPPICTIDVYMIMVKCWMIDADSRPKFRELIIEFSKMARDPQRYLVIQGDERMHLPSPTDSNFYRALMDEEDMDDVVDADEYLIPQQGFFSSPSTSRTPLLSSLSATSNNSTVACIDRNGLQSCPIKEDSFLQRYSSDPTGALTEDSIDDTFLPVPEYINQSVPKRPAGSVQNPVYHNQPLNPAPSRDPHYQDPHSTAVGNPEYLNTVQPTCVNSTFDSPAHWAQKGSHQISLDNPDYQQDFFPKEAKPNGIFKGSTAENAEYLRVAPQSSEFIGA

On to `COc1cc(N2CCC(N3CCN(C)CC3)CC2)c(C)cc1Nc1ncc(Cl)c(Nc2cc(C)c(C)cc2P(C)(C)=O)n1` [Compound 12, (2-((5-Chloro-2-((2-methoxy-5-methyl-4-(4-(4-methylpiperazin-1-yl)piperidin-1-yl)phenyl)amino)pyrimidin-4-yl)amino)-4,5-dimethylphenyl)dimethylphosphine oxide], for which the values for the IC50 in data set [1], in data set [2] and in data set [3] were 5.3 nM, 44.4 nM and over 500 nM, respectively. For the same compound, the Cmax in data set [4] turned out to be 1190 ng/mL.

Consider `CCc1cc(Nc2ncc(Cl)c(Nc3ccc(C)c(C)c3P(C)(C)=O)n2)c(OC)cc1N1CCC2(CC1)CC(N1CCCC1)C2` [Compound 48, (6-((5-chloro-2-((5-ethyl-2-methoxy-4-(2-(pyrrolidin-1-yl)-7-azaspiro[3.5]nonan-7-yl)phenyl)amino)pyrimidin-4-yl)amino)-2,3-dimethylphenyl)dimethylphosphine oxide], for which the IC50 was 0.0629 nM in data set [1], 634 nM in data set [5] and 176 nM in data set [6].

Turning to `COc1cc(N2CCC3(CC2)CC(N(C)C)C3)c(C)cc1Nc1ncc(Cl)c(Nc2ccc(C)c(C)c2P(C)(C)=O)n1` [Compound 23, (6-((5-chloro-2-((4-(2-(dimethylamino)-7-azaspiro[3.5]nonan-7-yl)-2-methoxy-5-methylphenyl)amino)pyrimidin-4-yl)amino)-2,3-dimethylphenyl)dimethylphosphine oxide], the IC50 in data set [1] is 0.78 nM; in data set [2], 39 nM; in data set [3], over 500 nM.

Regarding `CCc1cc(Nc2ncc(Cl)c(Nc3ccccc3P(C)(C)=O)n2)c(OC)cc1N1CC2(CCN(C)CC2)C1` [Comparative Compound B, (2-((5-Chloro-2-((5-ethyl-2-methoxy-4-(7-methyl-2,7-diazaspiro[3.5]nonan-2-yl)phenyl)amino)pyrimidin-4-yl)amino)phenyl)dimethylphosphine oxide, reference compound], the IC50 in data set [1] stood at 2.3 nM; in data set [2], 251 nM; in data set [3] it was 280 nM.

On to `COc1cc(N2CCC3(CC2)CC(N(C)C)C3)c(F)cc1Nc1ncc(Cl)c(Nc2cc(C)c(C)cc2P(C)(C)=O)n1` [Compound 16, (2-((5-chloro-2-((4-(2-(dimethylamino)-7-azaspiro[3.5]nonan-7-yl)-5-fluoro-2-methoxypheny 1)amino)pyrimidin-4-yl)amino)-4,5-dimethylphenyl)dimethylphosphine oxide], for which the IC50 in data set [1] is 12 nM; in data set [2], 35.7 nM; in data set [3], over 500 nM.

`CCc1cc(Nc2ncc(Cl)c(Nc3cccc(Cl)c3P(C)(C)=O)n2)c(OC)cc1N1CCC2(CC1)CC(N(C)C)C2` [Compound 19, (2-chloro-6-((5-chloro-2-((4-(2-(dimethylamino)-7-azaspiro[3.5]nonan-7-yl)-5-ethyl-2-methoxyphenyl)amino)pyrimidin-4-yl)amino)phenyl)dimethylphosphine oxide]: the IC50 in data set [1] was 0.86 nM; in data set [2] it was 47.8 nM; in data set [3], over 500 nM.

Consider `COc1cc(N2CCC3(CC2)CC(N(C)C)C3)c(Cl)cc1Nc1ncc(Cl)c(Nc2ccc(C)c(C)c2P(C)(C)=O)n1` [Compound 21, (6-((5-chloro-2-((5-chloro-4-(2-(dimethylamino)-7-azaspiro[3.5]nonan-7-yl)-2-methoxyphenyl)amino)pyrimidin-4-yl)amino)-2,3-dimethylphenyl)dimethylphosphine oxide], for which the IC50 was 0.65 nM in data set [1], 33.3 nM in data set [2] and over 500 nM in data set [3].

For the origin of these results see patent US20250101052A1, “COMPOUND FOR EGFR KINASE INHIBITOR, COMPOSITION, AND USE THEREOF” (INNOVATION INSTITUTE FOR ARTIFICIAL INTELLIGENCE IN …, priority 2021, published 2025).
